Tests used:
macrophages = conditions: as reported; cited from earlier work
platelet = conditions: risk of causing thrombocytopenia; cited from earlier work
[1] = biological target: T1, 3-hydroxy-3-methylglutaryl-CoA reductase (HMGCR) (Homo sapiens, UniProt P04035); assay: Mevalonate pathway inhibition in SC, effect on cytotoxicity by Vδ2 T cells; format: cell-based; conditions: SC treated with the HMGCR inhibitor
T1 construct: endogenous in cells; host or cells: senescent cells (SC)
T1 sequence (P04035 1-888): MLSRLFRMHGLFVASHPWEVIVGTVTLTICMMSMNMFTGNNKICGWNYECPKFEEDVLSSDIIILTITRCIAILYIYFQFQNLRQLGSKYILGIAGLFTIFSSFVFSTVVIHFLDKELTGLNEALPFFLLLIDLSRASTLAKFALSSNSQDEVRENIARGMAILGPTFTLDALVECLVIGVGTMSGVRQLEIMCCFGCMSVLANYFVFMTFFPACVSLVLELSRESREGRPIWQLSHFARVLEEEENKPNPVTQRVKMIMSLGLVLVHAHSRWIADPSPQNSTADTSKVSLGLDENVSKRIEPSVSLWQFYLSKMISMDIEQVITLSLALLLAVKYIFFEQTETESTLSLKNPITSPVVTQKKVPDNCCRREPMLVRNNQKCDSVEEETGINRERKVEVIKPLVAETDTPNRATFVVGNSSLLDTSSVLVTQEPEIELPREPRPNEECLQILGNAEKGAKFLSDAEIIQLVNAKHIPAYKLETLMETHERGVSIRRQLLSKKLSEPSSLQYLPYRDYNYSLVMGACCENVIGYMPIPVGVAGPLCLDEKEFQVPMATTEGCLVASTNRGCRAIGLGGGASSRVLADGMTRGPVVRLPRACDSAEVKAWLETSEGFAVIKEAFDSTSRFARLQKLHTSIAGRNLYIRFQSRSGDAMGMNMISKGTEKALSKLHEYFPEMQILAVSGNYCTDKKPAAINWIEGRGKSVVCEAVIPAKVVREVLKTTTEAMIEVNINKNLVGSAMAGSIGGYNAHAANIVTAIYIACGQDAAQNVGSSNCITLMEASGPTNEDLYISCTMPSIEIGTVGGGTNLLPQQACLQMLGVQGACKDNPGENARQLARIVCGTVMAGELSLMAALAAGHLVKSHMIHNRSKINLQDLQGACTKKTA
Text: NKG2D recognizes target cells based on their surface expression of ligands such as MICA. […] Briefly, phosphoantigens such as IPP (an intermediate metabolite of mevalonate pathway) bind to the intracellular domain of BTN3A, leading to a conformational change in the extracellular domain that is recognized by γδTCR. […] To determine the role of mevalonate pathway, we inhibited the rate-limiting enzyme 3-hydroxy-3-methylglutaryl-CoA reductase (HMGCR) with mevastain in SC and tested the effect on cytotoxicity by Vδ2 T cells.

In the case of CC1(C)CCC(c2ccc(Cl)cc2)=C(CN2CCN(c3ccc(C(=O)NS(=O)(=O)c4ccc(N[C@H](CCN5CCOCC5)CSc5ccccc5)c(S(=O)(=O)C(F)(F)F)c4)cc3)CC2)C1 [ABT263, navitoclax], the effect on macrophages (macrophages) is listed as “destroy macrophages” and the platelet toxicity (platelet) is listed as “dose-limiting platelet toxicity”.

In the case of CC[C@H](C)C(=O)O[C@H]1CCC=C2C=C[C@H](C)[C@H](CC[C@@H]3C[C@@H](O)CC(=O)O3)[C@H]21 [mevastatin], the “effect on Vδ2 T cell-mediated cytotoxicity toward SC” value [1] was “resistant to gamma delta T cells” and the “effect on Vδ2 T cell-mediated cytotoxicity toward SC” value ([1]; listed as mevastain) was “significantly reduced Vδ2 T cell-mediated cytotoxicity”.

In the case of O=c1c(O)c(-c2ccc(O)c(O)c2)oc2cc(O)ccc12 [fisetin], the effect on macrophages (macrophages) is listed as “destroy macrophages”.

— patent US20250332198A1, “TARGETED ELIMINATION OF SENESCENT CELLS BY GAMMA-DELTA T CELLS” (SENS RESEARCH FOUNDATION, priority 2022, published 2025)
